Read-outs that look alike come from different tables or passages of the source.
Key:
BRG-1 = BRG-1 (Homo sapiens, UniProt P51532); assay: ATPase catalytic activity assay (ADP-Glo), BRG-1; conditions: for Emax: 1 h, read-out: BRG1 Max % Inhibition, ADP-Glo, 30 nM BRG-1, 400 μM ATP
BRM = BRM (Homo sapiens, UniProt P51531); assay: ATPase catalytic activity assay (ADP-Glo), BRM; conditions: 30 nM BRM, 400 μM ATP; for IC50: BRM ATPase: IC50 (uM)
Chain of BRM (P51531 whole entry): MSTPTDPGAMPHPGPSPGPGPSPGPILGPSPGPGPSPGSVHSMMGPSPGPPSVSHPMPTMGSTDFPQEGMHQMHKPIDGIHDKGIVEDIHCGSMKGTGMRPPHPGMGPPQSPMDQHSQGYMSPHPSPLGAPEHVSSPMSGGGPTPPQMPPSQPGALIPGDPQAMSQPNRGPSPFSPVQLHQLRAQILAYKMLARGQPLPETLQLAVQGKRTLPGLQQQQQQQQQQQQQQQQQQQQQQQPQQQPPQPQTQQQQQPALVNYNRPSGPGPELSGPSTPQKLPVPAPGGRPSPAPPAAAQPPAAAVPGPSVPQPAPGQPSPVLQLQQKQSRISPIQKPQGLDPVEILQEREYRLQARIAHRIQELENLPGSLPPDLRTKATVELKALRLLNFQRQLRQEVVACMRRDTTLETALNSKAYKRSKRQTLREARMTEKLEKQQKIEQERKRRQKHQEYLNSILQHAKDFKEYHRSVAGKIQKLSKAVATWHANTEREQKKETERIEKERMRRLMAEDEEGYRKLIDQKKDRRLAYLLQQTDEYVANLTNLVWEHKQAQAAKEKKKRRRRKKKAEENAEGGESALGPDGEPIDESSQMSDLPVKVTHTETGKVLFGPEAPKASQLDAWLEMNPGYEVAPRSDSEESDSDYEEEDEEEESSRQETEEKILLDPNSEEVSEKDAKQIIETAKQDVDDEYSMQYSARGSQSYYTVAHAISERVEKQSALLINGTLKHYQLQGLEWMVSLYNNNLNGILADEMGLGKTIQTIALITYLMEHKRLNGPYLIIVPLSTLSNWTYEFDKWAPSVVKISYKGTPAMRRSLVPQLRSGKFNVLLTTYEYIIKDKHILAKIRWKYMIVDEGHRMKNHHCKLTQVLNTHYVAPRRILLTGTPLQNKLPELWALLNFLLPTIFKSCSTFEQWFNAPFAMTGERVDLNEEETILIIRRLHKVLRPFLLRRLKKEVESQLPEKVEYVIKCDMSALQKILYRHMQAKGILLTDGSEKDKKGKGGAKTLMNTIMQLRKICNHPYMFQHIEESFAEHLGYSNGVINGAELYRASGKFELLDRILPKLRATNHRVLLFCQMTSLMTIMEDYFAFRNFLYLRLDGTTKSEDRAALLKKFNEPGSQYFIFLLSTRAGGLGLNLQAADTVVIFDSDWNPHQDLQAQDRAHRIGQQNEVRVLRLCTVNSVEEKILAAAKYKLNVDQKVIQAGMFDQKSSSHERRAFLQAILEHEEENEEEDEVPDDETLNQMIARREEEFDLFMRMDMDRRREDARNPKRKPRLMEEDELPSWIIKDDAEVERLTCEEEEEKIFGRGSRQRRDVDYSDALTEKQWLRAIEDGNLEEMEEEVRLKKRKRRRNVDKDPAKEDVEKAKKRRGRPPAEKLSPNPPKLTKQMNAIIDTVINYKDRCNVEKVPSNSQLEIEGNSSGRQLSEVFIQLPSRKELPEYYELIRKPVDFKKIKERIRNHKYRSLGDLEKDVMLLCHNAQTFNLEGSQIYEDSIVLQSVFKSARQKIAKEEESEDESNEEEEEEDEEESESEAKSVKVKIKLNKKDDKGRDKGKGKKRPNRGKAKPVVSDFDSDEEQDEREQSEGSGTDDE

Chain of BRG-1 (P51532 whole entry): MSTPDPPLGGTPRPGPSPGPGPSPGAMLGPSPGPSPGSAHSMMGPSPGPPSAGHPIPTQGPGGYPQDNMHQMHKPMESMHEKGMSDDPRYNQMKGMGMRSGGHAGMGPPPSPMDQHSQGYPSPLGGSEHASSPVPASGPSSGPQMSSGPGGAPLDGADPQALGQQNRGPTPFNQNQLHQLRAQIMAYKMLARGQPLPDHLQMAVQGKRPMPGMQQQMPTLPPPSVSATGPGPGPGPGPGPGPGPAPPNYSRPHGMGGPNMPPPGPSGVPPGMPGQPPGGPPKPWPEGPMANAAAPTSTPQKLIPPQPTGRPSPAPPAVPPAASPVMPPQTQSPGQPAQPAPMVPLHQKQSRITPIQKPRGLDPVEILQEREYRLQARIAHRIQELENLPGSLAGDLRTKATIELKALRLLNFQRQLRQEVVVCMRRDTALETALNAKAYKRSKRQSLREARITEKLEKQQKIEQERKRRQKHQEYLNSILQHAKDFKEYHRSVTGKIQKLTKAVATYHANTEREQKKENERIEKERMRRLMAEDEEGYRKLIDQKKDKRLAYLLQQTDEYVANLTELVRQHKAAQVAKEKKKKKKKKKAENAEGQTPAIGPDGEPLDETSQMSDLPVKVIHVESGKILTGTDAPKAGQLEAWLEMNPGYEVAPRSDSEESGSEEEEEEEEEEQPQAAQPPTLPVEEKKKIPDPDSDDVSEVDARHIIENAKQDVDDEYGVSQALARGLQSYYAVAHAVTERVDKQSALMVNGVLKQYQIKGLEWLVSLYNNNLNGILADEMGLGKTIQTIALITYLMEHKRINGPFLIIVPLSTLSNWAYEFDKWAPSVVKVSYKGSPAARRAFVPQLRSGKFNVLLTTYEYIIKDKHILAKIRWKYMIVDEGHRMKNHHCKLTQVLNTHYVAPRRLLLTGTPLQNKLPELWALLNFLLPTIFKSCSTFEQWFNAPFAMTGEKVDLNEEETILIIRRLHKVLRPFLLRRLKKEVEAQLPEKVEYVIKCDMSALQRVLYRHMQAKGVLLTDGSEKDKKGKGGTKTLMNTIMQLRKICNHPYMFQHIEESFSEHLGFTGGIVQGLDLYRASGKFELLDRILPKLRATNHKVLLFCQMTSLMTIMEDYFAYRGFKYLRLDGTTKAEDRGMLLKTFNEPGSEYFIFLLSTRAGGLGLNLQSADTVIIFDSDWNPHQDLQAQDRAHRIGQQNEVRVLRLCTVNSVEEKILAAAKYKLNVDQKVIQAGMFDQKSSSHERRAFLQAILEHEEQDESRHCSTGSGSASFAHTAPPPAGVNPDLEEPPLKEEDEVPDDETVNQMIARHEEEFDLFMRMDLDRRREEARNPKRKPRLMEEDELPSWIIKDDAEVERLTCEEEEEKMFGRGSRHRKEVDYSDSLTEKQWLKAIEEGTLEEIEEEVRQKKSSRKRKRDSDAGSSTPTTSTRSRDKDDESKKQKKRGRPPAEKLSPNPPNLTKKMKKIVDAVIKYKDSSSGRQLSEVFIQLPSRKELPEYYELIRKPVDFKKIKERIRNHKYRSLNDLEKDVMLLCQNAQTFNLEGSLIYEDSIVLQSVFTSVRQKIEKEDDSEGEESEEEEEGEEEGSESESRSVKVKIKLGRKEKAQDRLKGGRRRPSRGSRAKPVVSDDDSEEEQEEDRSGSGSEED

Structure (SMILES)	IC50 (BRG-1) [nM]	Emax (BRG-1) [%]	BRM Max % Inhibition (BRM) [%]	IC50 (BRM) [µM]	BRG1 Max % Inhibition (BRG-1; ADP-Glo, 30 nM BRG-1, 400 μM ATP) [%]	IC50 (BRG-1; read-out: BRG1 ATPase: IC50, ADP-Glo, 30 nM BRG-1, 400 μM ATP) [nM]
COCCNC(=O)c1cccc(-c2ccc3cnc(CNC(=O)c4ccc5c(c4)[C@](C)(C#N)COC5)cc3n2)c1 [Compound 468]	500 to 1000	80	100	< 0.1	–	–
C[C@@]1(C#N)COCc2ccc(C(=O)NCc3cc4nc(N5CCCN(C6CC6)C5=O)ccc4cn3)cc21 [Compound 315]	> 1000	33	81	0.1 to 0.5	–	–
C[C@@]1(C#N)COCc2ccc(C(=O)NCc3cc4cc(-c5ccccc5)ncc4cn3)cc21 [Compound 508]	> 1000	46	90	0.1 to 0.5	–	–
C[C@@]1(C#N)COCc2ccc(C(=O)NCc3cc4nc(-c5ccnc(N6CCC6)c5)ccc4cn3)cc21 [Compound 437]	100 to 500	87	99	< 0.1	–	–
COC1CCN(c2nccc(-c3ccc4cnc(CNC(=O)c5ccc6c(c5)[C@](C)(C#N)COC6)cc4n3)n2)C1 (stereo partly shown) [Compound 422]	< 100	97	99	< 0.1	–	–
CN1C(=O)Cc2cc(-c3ccc4cnc(CNC(=O)c5ccc6c(c5)[C@](C)(C#N)COC6)cc4n3)ccc21 [Compound 498]	100 to 500	83	98	0.1 to 0.5	–	–
COc1nn(C2CC2)cc1-c1ccc2cnc(CNC(=O)c3ccc4c(c3)[C@](C)(C#N)COC4)cc2n1 [Compound 225]	500 to 1000	72	92	0.1 to 0.5	–	–
C[C@@]1(F)COCc2ccc(C(=O)NCc3cc4nc(-c5ccnc(N6CCC6)n5)ccc4cn3)cc21 [Compound 429]	100 to 500	93	99	< 0.1	–	–
C[C@@]1(C#N)COCc2ccc(C(=O)NCc3ncc4ccc(-c5cncc(C6CC6)n5)cc4n3)cc21 [Compound 206]	100 to 500	85	99	< 0.1	–	–
Cc1cnc(CNC(=O)c2ccc3c(c2)[C@](C)(C#N)COC3)cc1C#Cc1ccccc1 [Compound 15]	> 1000	64	94	0.5 to 1	–	–
COc1ccc(-c2ccc3cnc(CNC(=O)c4ccc5c(c4)[C@](C)(C#N)COC5)cc3n2)cc1 [Compound 108]	500 to 1000	91	99	< 0.1	–	–
C[C@@]1(O)COCc2ccc(C(=O)NCc3cc4nc(-c5ccccc5)sc4cn3)cc21 [Compound 119]	> 1000	18	81	> 1	–	–
COc1cc(C)nn1-c1ccc2cnc(CNC(=O)c3ccc4c(c3)[C@](C)(C#N)COC4)cc2n1 [Compound 195]	> 1000	47	84	0.1 to 0.5	–	–
C[C@@]1(C#N)COCc2ccc(C(=O)NCc3cc4nc(-c5ccncc5)ccc4cn3)cc21 [Compound 451]	500 to 1000	58	93	0.1 to 0.5	–	–
C[C@@]1(C#N)COCc2ccc(C(=O)NCc3cc(N4CCC5CCCCC5C4)ccn3)cc21 (stereo partly shown) [Compound 57]	> 1000	37	85	0.1 to 0.5	–	–
C[C@@]1(C#N)COCc2ccc(C(=O)NCc3cc4nc(-c5ccccn5)ccc4cn3)cc21 [Compound 102]	> 1000	56	93	0.1 to 0.5	–	–
C[C@@]1(C#N)COCc2ccc(C(=O)NCc3cc4nc(-c5ccccc5OCCO)ccc4cn3)cc21 [Compound 431]	500 to 1000	53	86	0.1 to 0.5	–	–
COc1nn(C)cc1-c1cnc2cnc(CNC(=O)c3ccc4c(c3)[C@](C)(F)COC4)cc2n1 [Compound 161]	500 to 1000	53	94	0.1 to 0.5	–	–
CN1CCN(c2nccc(-c3ccc4cnc(CNC(=O)c5ccc6c(c5)[C@](C)(F)COC6)cc4n3)n2)CC1=O [Compound 267]	100 to 500	88	103	< 0.1	–	–

Second part, the compound after the results:

IC50 (BRG-1) [nM]	Emax (BRG-1) [%]	BRM Max % Inhibition (BRM) [%]	IC50 (BRM) [µM]	BRG1 Max % Inhibition (BRG-1; ADP-Glo, 30 nM BRG-1, 400 μM ATP) [%]	IC50 (BRG-1; read-out: BRG1 ATPase: IC50, ADP-Glo, 30 nM BRG-1, 400 μM ATP) [nM]	Structure (SMILES)
500 to 1000	81	99	< 0.1	–	–	C[C@@]1(C#N)COCc2ccc(C(=O)NCc3cc4c(cn3)CCN(c3cncc(C5CC5)n3)C4)cc21 [Compound 328]
500 to 1000	67	97	0.1 to 0.5	–	–	C[C@@]1(F)COCc2ccc(C(=O)NCc3cc4nc(-c5ccnn(C6CC6)c5=O)ccc4cn3)cc21 [Compound 268]
–	–	98	< 0.1	77	> 1000	C[C@@]1(C#N)COCc2ccc(C(=O)NCc3cc4nc(-c5ccccc5)ccc4cn3)cc21 [Compound 85]
500 to 1000	65	93	0.1 to 0.5	–	–	Cn1ncc2c1CN(c1ccc3cnc(CNC(=O)c4ccc5c(c4)[C@](C)(C#N)COC5)cc3n1)C2 [Compound 461]
> 1000	38	88	0.1 to 0.5	–	–	C[C@@H]1CN(c2cccc([C@H]3C[C@@H](c4ccnc(CNC(=O)c5ccc6c(c5)[C@](C)(C#N)COC6)c4)C3)n2)C[C@H](C)O1 [Compound 82]
500 to 1000	67	96	0.1 to 0.5	–	–	C[C@@]1(C#N)COCc2ccc(C(=O)NCc3cc4c(cn3)CCN(c3ccnc(N5CCC5)n3)C4)cc21 [Compound 332]
> 1000	64	89	0.1 to 0.5	–	–	Cn1cccc(-c2ccc3cnc(CNC(=O)c4ccc5c(c4)[C@](C)(C#N)COC5)cc3n2)c1=O [Compound 510]
> 1000	59	95	0.1 to 0.5	–	–	C[C@@]1(C#N)COCc2ccc(C(=O)NCc3cc4nc(N5CCCC5)ccc4cn3)cc21 [Compound 514]
> 1000	98	97	< 0.1	–	–	C[C@@]1(C#N)COCc2ccc(C(=O)NCc3cc4nc(-c5ccccc5)sc4cn3)cc21 [Compound 124]
> 1000	73	96	0.1 to 0.5	–	–	C[C@@]1(C#N)COCc2ccc(C(=O)NCc3cc(N4Cc5ccccc5C4)ccn3)cc21 [Compound 31]
100 to 500	98	99	< 0.1	–	–	C[C@@]1(C#N)COCc2ccc(C(=O)NCc3cc4cc(-c5nccc(N6CCC6)n5)ccc4cn3)cc21 [Compound 365]
> 1000	33	84	0.5 to 1	–	–	Cn1cc(-c2ccc3cnc(CNC(=O)c4ccc5c(c4)[C@](C)(C#N)COC5)cc3n2)cn1 [Compound 104]
500 to 1000	72	92	0.1 to 0.5	–	–	C[C@@]1(C#N)COCc2ccc(C(=O)NCc3cc4nc(N5CCN(C6CCC6)C5=O)ccc4cn3)cc21 [Compound 313]
> 1000	32	79	> 1	–	–	Cn1ccc(-c2ccc3cnc(CNC(=O)c4ccc5c(c4)[C@](C)(C#N)COC5)cc3n2)n1 [Compound 113]
500 to 1000	51	89	0.1 to 0.5	–	–	CC1c2cc(CNC(=O)c3ccc4c(c3)[C@](C)(C#N)COC4)ncc2CCN1c1cncc(C2CC2)n1 (stereo partly shown) [Compound 209]
100 to 500	93	102	< 0.1	–	–	COc1nn(C)cc1-c1ccc2cnc(CNC(=O)c3ccc4c(c3)[C@](C)(C#N)COC4)cc2c1 [Compound 367]
500 to 1000	52	91	0.1 to 0.5	–	–	CCC(C)(O)c1cccc(-c2ccc3cnc(CNC(=O)c4ccc5c(c4)[C@](C)(F)COC5)cc3n2)n1 (stereo partly shown) [Compound 205]
500 to 1000	84	97	0.1 to 0.5	–	–	C[C@@]1(C#N)COCc2ccc(C(=O)NCc3cc(N4CCc5cc(C(F)F)ccc5C4)ccn3)cc21 [Compound 67]
> 1000	15	76	> 1	–	–	C[C@@]1(O)COCc2ccc(C(=O)NCc3cc4nc(-c5ccccc5)ccc4cn3)cc21 [Compound 89]
100 to 500	91	100	< 0.1	–	–	COc1nn(C)cc1-c1ccc2cnc(CNC(=O)c3ccc4c(c3)[C@](C)(F)COC4)cc2c1 [Compound 251]
500 to 1000	67	94	< 0.1	–	–	COc1nn(CC(F)F)cc1-c1ccc2cnc(CNC(=O)c3ccc4c(c3)[C@](C)(C#N)COC4)cc2n1 [Compound 202]
100 to 500	94	98	< 0.1	–	–	C[C@@H]1COCCN1c1nccc(-c2ccc3cnc(CNC(=O)c4ccc5c(c4)[C@](C)(C#N)COC5)cc3n2)n1 [Compound 363]
100 to 500	97	99	< 0.1	–	–	COc1cc(Cl)ccc1-c1ccc2cnc(CNC(=O)c3ccc4c(c3)[C@](C)(C#N)COC4)cc2n1 [Compound 156]
100 to 500	88	98	< 0.1	–	–	COc1ccc(F)cc1-c1ccc2cnc(CNC(=O)c3ccc4c(c3)[C@](C)(C#N)COC4)cc2n1 [Compound 517]
